Values after ≈ are worked out from the molar mass of the structure shown.
Experiments:
Candida albicans [1] = test: in vivo testing, disseminated infection of Candida albicans in outbred mice
Source text: In the in vivo testing of the inventive compound and compositions, outbred mice were used. A disseminated infection of Candida albicansin the test animals was achieved by intravenous injection of 0.5 to 1×10^6 CFU of the pathogen. The organism is rapidly cleared from the blood and most tissues, except the kidney which is the primary target organ for the disseminated infection in mice. It is known than an inoculum of 0.5×10^6 CFU will cause death of outbred mice within 10-14 days due to disseminated infection if untreated. The vehicle used for administering the compound of the invention was a mixture consisting of 50% USP water, 40% propylene glycol and 10% absolute ethonol.

[2] = humans, under varying conditions; cited from earlier work
Candida albicans 10231 = test: MIC, twofold serial broth dilution assay; type: cell-based; conditions: ATCC10231; Candida albicans ATCC 10231; 24 and 48 hours at 37°
Method: (§1) Candida albicansNIH B311 used to induce experimental disseminated candidiasis was used for the initial qualitative evaluation of anticandidal activity. The organism was grown in Sabouraud-dextrose broth (SDB) for 14 hours at 37°, at which time the cells were harvested by centrifugation (4°, 2000 rpm, 3 min). After centrifugation, the cells were washed and suspended in sterile 0.9% saline to give a final concentration of […] colony forming units (CFU) per ml (adjusted using a hemocytometer). Culture plates (15×100 mm) for the qualitative assay were prepared from 25 ml of Sabouraud-dextrose agar. Using sterile cotton swabs, the plates were streaked with the suspension ([…] of Candida albicansB311. Cylindrical plugs were removed from the agar plates by means of a sterile cork borer to produce wells with a diameter of approximately 11 mm. To the well was added 100 μl of solution or suspension of an extract, fraction, or pure compound. Crude extracts and fractions were tested at a concentration of 20 mg/ml, whereas pure compounds were tested at 1 mg/ml. When solvents other than H2 O, EtOH, MeOH, DMSO, DMF, or Me2 CO were required to dissolve extracts or compounds, solvent blanks were included. Anticandidal activity was recorded as the width (in mm) of the zone of inhibition following incubation of the plates at 37° for 24 hours. The antifungal agents amphotericin-B and ketoconazole were included as standards in each assay.
(§2) The method used to determine the minimum inhibitory concentration (MIC) of the inventive compound was a twofold serial broth dilution assay in yeast nitrogen broth. In addition to Candida albicansB311, the MIC values for eupolauridine were also determined for two additional strains of Candida albicans: ATCC 10231 and a clinical isolate, designated WH. The inventive compound was initially tested using a concentration of 100 μg/ml in the first tube. The compound was added to sterile Sabouraud-dextrose broth as a solution in DMSO. The inoculum for the MIC determination was prepared as described for qualitative evaluation. […]

Candida albicans WH = test: MIC, twofold serial broth dilution assay; type: cell-based; conditions: Candida albicans clinical isolate WH; 24 and 48 hours at 37°
Method: as §1, §2

Candida albicans B311 = test: MIC, twofold serial broth dilution assay; type: cell-based; conditions: 24 and 48 hours at 37°
Method: as §1, §2

Candida albicans [3] = test: anticandidal activity, agar-well diffusion assay (zone of inhibition); type: cell-based; conditions: three test strains of Candida albicans
Method: In vitro evaluation of the anticandidal activity of the inventive compound and compositions was carried out using the agar-well diffusion assay as follows:
Candida albicansNIH B311 used to induce experimental disseminated candidiasis was used for the initial qualitative evaluation of anticandidal activity. The organism was grown in Sabouraud-dextrose broth (SDB) for 14 hours at 37°, at which time the cells were harvested by centrifugation (4°, 2000 rpm, 3 min). After centrifugation, the cells were washed and suspended in sterile 0.9% saline to give a final concentration of […] colony forming units (CFU) per ml (adjusted using a hemocytometer). Culture plates (15×100 mm) for the qualitative assay were prepared from 25 ml of Sabouraud-dextrose agar. […] Anticandidal activity was recorded as the width (in mm) of the zone of inhibition following incubation of the plates at 37° for 24 hours. […]

[4] = system: Aspergillus fumigatus 26934; test: MIC, twofold serial broth dilution assay; type: cell-based
[5] = system: Saccharomyces cerevisiae 9763; test: MIC, twofold serial broth dilution assay; type: cell-based
[6] = system: Cryptococcus neoformans 32264; test: MIC, twofold serial broth dilution assay; type: cell-based
[7] = system: Trichophyton mentagrophytes 9972; test: MIC, twofold serial broth dilution assay; type: cell-based
Aspergillus flavus 9170 = test: MIC, twofold serial broth dilution assay; type: cell-based

## C[C@@H]1[C@H](O)[C@@H](C)/C=C/C=C/C=C/C=C/C=C/C=C/C=C/[C@H](O[C@@H]2O[C@H](C)[C@@H](O)[C@H](N)[C@@H]2O)C[C@@H]2O[C@](O)(C[C@@H](O)C[C@@H](O)[C@H](O)CC[C@@H](O)C[C@@H](O)CC(=O)O[C@H]1C)C[C@H](O)[C@H]2C(=O)O [Amphotericin-B, amphotericin-B, reference compound]
Candida albicans [1]; 2.5 mg/kg, day 1
  Number dead/Total: 0/10
Candida albicans [1]; 2.5 mg/kg, day 2
  Number dead/Total: 0/10
Candida albicans [1]; 2.5 mg/kg, day 3
  Number dead/Total: 0/10
Candida albicans [1]; 2.5 mg/kg, day 4
  Number dead/Total: 0/10
Candida albicans [1]; 2.5 mg/kg, day 5
  Number dead/Total: 0/10
Candida albicans [1]; 2.5 mg/kg, day 6
  Number dead/Total: 1/10
Candida albicans [1]; 2.5 mg/kg, day 7
  Number dead/Total: 2/10
Candida albicans [1]; 2.5 mg/kg, day 8
  Number dead/Total: 2/10
Candida albicans [1]; 2.5 mg/kg, day 9
  Number dead/Total: 4/10
Candida albicans [1]; 2.5 mg/kg, day 10
  Number dead/Total: 4/10
[2]
  side effects: fever, anorexia, nausea and vomiting, diarrhea, muscle and joint pain, phlebitis and thiophlebitis, anemia, abnormal renal function, anuria, cardiovascular distress, hypertension and hypotension

## c1ccc2c(c1)-c1nccc3ccnc-2c13 [Eupolauridine, eupolauridine]
Candida albicans 10231
  MIC: 1.56 µg/mL (≈ 7.64 µM)
Candida albicans WH
  MIC: 1.56 µg/mL (≈ 7.64 µM)
Candida albicans B311
  MIC: 1.56 µg/mL (≈ 7.64 µM)
Candida albicans [1]; 2 mg/kg, day 1
  Number dead/Total: 0/10
Candida albicans [1]; 2 mg/kg, day 2
  Number dead/Total: 0/10
Candida albicans [1]; 2 mg/kg, day 3
  Number dead/Total: 0/10
Candida albicans [1]; 2 mg/kg, day 4
  Number dead/Total: 0/10
Candida albicans [1]; 2 mg/kg, day 5
  Number dead/Total: 0/10
Candida albicans [1]; 2 mg/kg, day 6
  Number dead/Total: 1/10
Candida albicans [1]; 2 mg/kg, day 7
  Number dead/Total: 3/10
Candida albicans [1]; 2 mg/kg, day 8
  Number dead/Total: 4/10
Candida albicans [1]; 2 mg/kg, day 9
  Number dead/Total: 4/10
Candida albicans [1]; 2 mg/kg, day 10
  Number dead/Total: 7/10
Candida albicans [1]; 7 mg/kg, day 1
  Number dead/Total: 0/10
Candida albicans [1]; 7 mg/kg, day 2
  Number dead/Total: 0/10
Candida albicans [1]; 7 mg/kg, day 3
  Number dead/Total: 2/10
Candida albicans [1]; 7 mg/kg, day 4
  Number dead/Total: 2/10
Candida albicans [1]; 7 mg/kg, day 5
  Number dead/Total: 2/10
Candida albicans [1]; 7 mg/kg, day 6
  Number dead/Total: 3/10
Candida albicans [1]; 7 mg/kg, day 7
  Number dead/Total: 3/10
Candida albicans [1]; 7 mg/kg, day 8
  Number dead/Total: 3/10
Candida albicans [1]; 7 mg/kg, day 9
  Number dead/Total: 4/10
Candida albicans [1]; 7 mg/kg, day 10
  Number dead/Total: 7/10
Candida albicans [1]; 20 mg/kg body weight, 10 days
  animals survived: 50%
  survival compared with amphotericin-B: not statistically significantly different from the results with amphotericin-B
Candida albicans [1]; 20 mg/kg, day 1
  Number dead/Total: 0/10
Candida albicans [1]; 20 mg/kg, day 2
  Number dead/Total: 0/10
Candida albicans [1]; 20 mg/kg, day 3
  Number dead/Total: 0/10
Candida albicans [1]; 20 mg/kg, day 4
  Number dead/Total: 0/10
Candida albicans [1]; 20 mg/kg, day 5
  Number dead/Total: 0/10
Candida albicans [1]; 20 mg/kg, day 6
  Number dead/Total: 0/10
Candida albicans [1]; 20 mg/kg, day 7
  Number dead/Total: 1/10
Candida albicans [1]; 20 mg/kg, day 8
  Number dead/Total: 3/10
Candida albicans [1]; 20 mg/kg, day 9
  Number dead/Total: 3/10
Candida albicans [1]; 20 mg/kg, day 10
  Number dead/Total: 5/10
Candida albicans [3]
  zone of inhibition: remarkable zone of inhibition
[4]
  MIC: 6.25 µg/mL (≈ 30.6 µM)
[5]
  MIC: 3.12 µg/mL (≈ 15.3 µM)
[6]
  MIC: 1.56 µg/mL (≈ 7.64 µM)
[7]
  MIC: 1.56 µg/mL (≈ 7.64 µM)
Aspergillus flavus 9170
  MIC: 6.25 µg/mL (≈ 30.6 µM)

Source: patent US4965272A, “Antimicrobial compound and compositions particularly effective against candida albicans” (priority 1988, dated 1990)
